In ChEMBL document CHEMBL4359811, “Development of Potent and Selective Pyrazolopyrimidine IRAK4 Inhibitors” (J Med Chem, 2019):

Key:
[1] = Oral bioavailability in mouse at 5 mg/kg; assay type: ADME, organism-based; details: in vivo
Mus musculus [2] = experiment: In vivo inhibition of IRAK4 in CpG ODN 1826 induced C57BL/6 mouse assessed as blockade of TLR9 signalling by measuring TNFalpha levels at 10 mg/kg, po treated 1 hr prior to CpG ODN 1826 stimulation and measured after 1 hr by MSD assay; assay type: functional; set-up: scale not given: the % may be the effect or the level left
[3] = Volume of distribution at steady state in rat at 1 mg/kg, iv; assay type: ADME, organism-based; details: in vivo, read-out: Vdss
[4] = Oral bioavailability in mouse at 100 mg/kg administered as suspension in 10% captisol; assay type: ADME, organism-based; details: in vivo
[5] = Volume of distribution at steady state in mouse at 1 mg/kg, iv; assay type: ADME, organism-based; details: in vivo, read-out: Vdss
[6] = Protein binding in rat plasma at 5 uM incubated for 4 hrs by LC-MS/MS analysis; assay type: ADME, cell-free; details: read-out: PPB (converted)
[7] = Protein binding in dog plasma at 5 uM incubated for 4 hrs by LC-MS/MS analysis; assay type: ADME, cell-free, Canis lupus familiaris; details: read-out: PPB (converted)
[8] = Half-life in rat at 1 mg/kg, po; assay type: ADME, organism-based; details: in vivo
Mus musculus [9] = experiment: In vivo inhibition of IRAK4 in CpG ODN 1826 induced C57BL/6 mouse assessed as blockade of TLR9 signalling by measuring TNFalpha levels at 3 mg/kg, po treated 1 hr prior to CpG ODN 1826 stimulation and measured after 1 hr by MSD assay; assay type: functional; set-up: scale not given: the % may be the effect or the level left
[10] = Half-life in mouse at 300 mg/kg, po administered as suspension in 10% captisol; assay type: ADME, organism-based; details: in vivo
Mus musculus [11] = experiment: In vivo inhibition of IRAK4 in CpG ODN 1826 induced C57BL/6 mouse assessed as blockade of TLR9 signalling by measuring TNFalpha levels at 1 mg/kg, po treated 1 hr prior to CpG ODN 1826 stimulation and measured after 1 hr by MSD assay; assay type: functional; set-up: scale not given: the % may be the effect or the level left
[12] = Cmax in mouse at 5 mg/kg, po; assay type: ADME, organism-based; set-up: dose 5 mg/kg, route oral; details: in vivo, read-out: Cmax

## C[C@]1(CO)Cc2cc(NC(=O)c3cnn4cccnc34)c(N3CCOCC3)cc2O1
[1]
  bioavailability: 59%
Mus musculus [2]
  Activity: -39%
[3]
  Vd: 2.3 L/kg
[4]
  bioavailability: 49%
[5]
  Vd: 1.1 L/kg
[6]
  fraction unbound at 4 h, 5 µM: 0.21
[7]
  fraction unbound at 4 h, 5 µM: 0.34
[8]
  half-life: 228 min
Mus musculus [9]
  Activity: -18%
[10]
  half-life: 2520 min
Mus musculus [11]
  Activity: 3%
[12]
  Cmax: 2100 nM
